Reference: the supplement of paper PMC10307832

What was measured:
Assay in all cases: relative viability (nuclei count vs DMSO), 5 days (fraction); higher = more cells survive
[1] = compound: COc1cc2/c(=N/c3ccc(Br)cc3F)nc[nH]c2cc1OCC1CCN(C)CC1 [Vandetanib] + Nc1ncn([C@H]2C[C@H](O)[C@@H](CO)O2)c(=O)n1 [Decitabine] (partner 2 µM)
In short: (§1)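 Five library-drug doses in √10 steps were combined with a fixed anchor-drug dose, or a single drug was given alone, by pin tool to lung cancer cell lines in 1536-well plates the day after seeding. Nuclei were stained and counted after 5 days. Relative viability is the nuclei count in treated wells over that in vehicle wells, taken as the median of duplicate plates.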

[2] = compound: C1=CC=C2C(=C1)N=C(S2)C(C#N)C3=NC(=NC=C3)NCCC4=CN=CC=C4 + COc1cccc2cc(-c3nc([C@H]4CC[C@H](C(=O)O)CC4)n4ncnc(N)c34)[nH]c12 [OSI-027] (partner 0.5 µM)
In short: as §1

[3] = compound: COc1cc2/c(=N/c3ccc(Br)cc3F)nc[nH]c2cc1OCC1CCN(C)CC1 [Vandetanib] + CS(=O)(=O)CCNCc1ccc(-c2ccc3ncnc(Nc4ccc(OCc5cccc(F)c5)c(Cl)c4)c3c2)o1 [Lapatinib] (partner 2 µM)
In short: as §1

[4] = compound: C1=CC=C2C(=C1)N=C(S2)C(C#N)C3=NC(=NC=C3)NCCC4=CN=CC=C4 + O=C(CCCCCCC(=O)Nc1ccccc1)NO [Vorinostat] (partner 1 µM)
In short: as §1

Cell Line | relative viability ([1]; first compound 0.02 µM) | relative viability ([1]; first compound 0.06325 µM) | relative viability ([1]; first compound 0.2 µM) | relative viability ([1]; first compound 0.6325 µM) | relative viability ([1]; first compound 2 µM) | relative viability ([2]; first compound 0.005 µM) | relative viability ([2]; first compound 0.01581 µM) | relative viability ([2]; first compound 0.05 µM) | relative viability ([2]; first compound 0.1581 µM) | relative viability ([2]; first compound 0.5 µM) | relative viability ([3]; first compound 0.02 µM) | relative viability ([3]; first compound 0.06325 µM) | relative viability ([3]; first compound 0.2 µM) | relative viability ([3]; first compound 0.6325 µM) | relative viability ([3]; first compound 2 µM) | relative viability ([4]; first compound 0.005 µM) | relative viability ([4]; first compound 0.01581 µM) | relative viability ([4]; first compound 0.05 µM) | relative viability ([4]; first compound 0.1581 µM) | relative viability ([4]; first compound 0.5 µM)
NCI-H1651 | 0.609 | 0.583 | 0.572 | 0.628 | 0.45 | 0.69 | 0.672 | 0.72 | 0.939 | 0.674 | 0.776 | 0.834 | 0.743 | 0.698 | 0.846 | 0.555 | 0.538 | 0.572 | 0.609 | 0.559
NCI-H1666 | 0.74 | 0.675 | 0.731 | 0.757 | 0.553 | 0.776 | 0.839 | 0.804 | 0.849 | 0.812 | 0.59 | 0.658 | 0.444 | 0.739 | 0.629 | 0.959 | 0.922 | 1.07 | 1.04 | 1
NCI-H1734 | 0.495 | 0.494 | 0.537 | 0.526 | 0.513 | – | 0.571 | 0.546 | 0.669 | 0.556 | 0.951 | 1.02 | 1.11 | 1.04 | 0.991 | 0.7 | 0.785 | 0.758 | 1.06 | 0.78
NCI-H1755 | 0.71 | 0.678 | 0.709 | 0.763 | 0.623 | 0.709 | 0.733 | 0.727 | 0.745 | 0.67 | 1.06 | 0.978 | 0.983 | 1.02 | 1.01 | 0.803 | 0.88 | 0.74 | 0.91 | 0.713
NCI-H1793 | 0.424 | 0.407 | 0.517 | 0.401 | 0.439 | 0.276 | 0.303 | 0.215 | 0.261 | 0.245 | 0.682 | 0.794 | 0.504 | 0.816 | 0.723 | – | 0.465 | 0.713 | 0.829 | 0.811
NCI-H1915 | 0.245 | 0.255 | 0.274 | 0.263 | 0.248 | 0.623 | 0.583 | 0.619 | 0.671 | 0.584 | 0.905 | 0.972 | 1.05 | 0.93 | 0.928 | – | 0.515 | 0.519 | 0.519 | 0.512
NCI-H1944 | 0.411 | 0.489 | 0.551 | 0.463 | 0.447 | 0.396 | 0.343 | 0.417 | 0.513 | 0.359 | 0.818 | 0.848 | 0.798 | 0.845 | 0.808 | 0.638 | 0.521 | 0.537 | 0.558 | 0.52
NCI-H1975 | 0.399 | 0.401 | 0.422 | 0.419 | 0.387 | 0.511 | 0.819 | 0.613 | 0.811 | 0.283 | 0.846 | 0.831 | 0.862 | 0.858 | 0.81 | 0.712 | 0.743 | 0.747 | 0.834 | 0.571
